{"source": "patent US12433844B2", "about": "“Preparation method and application of tumor microparticles encapsulating metabolic inhibitors” (Union Hospital, Tongji Medical College, Huazhong University …, priority 2022, dated 2025)", "system": "lung metastasis", "test": "Lung metastatic nodules count (H&E staining)", "type": "in vivo, mice", "settings": "compared to the PBS intervention group", "method": "In order to explore the anti-tumor effect of TMP-F combined with chemotherapy, two doses of cisplatin chemotherapy (Cis) are added during the intervention process. […] In addition, the lungs of mice are extracted, hematoxylin-eosin (H&E) staining is performed on the lungs of mice, and the number of lung metastatic nodules under the light microscope are observed and counted."}
{"compound": "N.N.[Cl][Pt][Cl]", "note": "[chemotherapy alone, cisplatin]", "values": [{"measurement": "lung metastasis (number of lung metastatic nodules)", "result": "inhibits the lung metastasis"}]}
